The source of these data is PubChem BioAssay (NCI).

Among the test systems are HOP-62 NSCLC; UO-31 renal; SK-MEL-28 melanoma; T-47D breast; NCI-H460 lung; TK-10 renal; MCF7 breast; CCRF-CEM leukemia; UACC-62 melanoma; MALME-3M melanoma; HCC-2998 colon; KM12 colon; SK-MEL-5 melanoma; HS 578T breast; M14 melanoma; UACC-257 melanoma.
What all share (assay): NCI tumour cell line growth inhibition, 48 h

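A five-concentration, 48-hour dose response in 96-well plates underlies each endpoint, interpolated linearly between surrounding concentrations. Definition used: TGI = concentration required for complete inhibition of growth.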 A value given as a limit tells only on which side of the number the result lay.

For `O=c1oc2ccc3ccccc3c2cc1-c1nc2ccccc2o1`, the TGI in the assay with HOP-62 NSCLC is above 52.1 µM; with UO-31 renal, above 54.8 µM; in the assay on SK-MEL-28 melanoma, above 59.2 µM; in the assay on T-47D breast it was 39.7 µM; with NCI-H460 lung it was above 100 µM; in the assay on TK-10 renal, above 100 µM. Moreover, the TGI is 20.5 µM in the assay with MCF7 breast; above 100 µM in the assay on CCRF-CEM leukemia; above 100 µM with UACC-62 melanoma; 26.5 µM with MALME-3M melanoma; above 100 µM with HCC-2998 colon; above 63.2 µM with KM12 colon. The TGI with SK-MEL-5 melanoma is 58.8 µM; in the assay on HS 578T breast it was above 68.8 µM; in the assay with M14 melanoma it was above 56 µM; with UACC-257 melanoma, 99.2 µM.

Take `CCN(CC)CCCNc1nc2ccccc2c2[nH]c3ccc(OC)cc3c12`: the TGI with HOP-62 NSCLC was 3 µM; in the assay with UO-31 renal it was above 10 µM; with SK-MEL-28 melanoma it was 3.11 µM; in the assay with T-47D breast, above 10 µM; with NCI-H460 lung it was 1.57 µM; in the assay with TK-10 renal, 5.55 µM. Besides, the TGI was 2.87 µM with MCF7 breast; 3.87 µM with CCRF-CEM leukemia; above 10 µM with UACC-62 melanoma; 3.41 µM with MALME-3M melanoma; 2.33 µM in the assay on HCC-2998 colon; 2.03 µM in the assay with KM12 colon. Besides, the TGI in the assay with SK-MEL-5 melanoma is 3.12 µM; with HS 578T breast it was 3.81 µM; in the assay on M14 melanoma, 3.1 µM; in the assay with UACC-257 melanoma, 3.2 µM.

With `CN(C)c1nc(-c2ccccc2)c(C(=O)c2c[nH]c3ccccc23)s1`, the TGI is above 100 µM in the assay on HOP-62 NSCLC; above 100 µM with UO-31 renal; above 100 µM with SK-MEL-28 melanoma; above 100 µM with T-47D breast; above 79.2 µM in the assay on NCI-H460 lung; above 76.3 µM in the assay with TK-10 renal. Besides, the TGI in the assay on MCF7 breast was above 100 µM; in the assay on CCRF-CEM leukemia it was above 60.5 µM; in the assay with UACC-62 melanoma, above 100 µM; in the assay with MALME-3M melanoma, above 100 µM; in the assay with HCC-2998 colon it was above 70.6 µM; in the assay with KM12 colon it was above 100 µM. Further, the TGI is above 100 µM with SK-MEL-5 melanoma, above 28.3 µM in the assay with HS 578T breast, above 100 µM in the assay with M14 melanoma and above 100 µM with UACC-257 melanoma.

For the compound `CC1CCC2C(C(=O)O[C@H]3C4CCO[C@@H](OC5OC(CO)C(O)C(O)C5O)C4[C@@]4(CO)O[C@@H]34)=CO[C@@H](OC3OC(CO)C(O)C(O)C3O)C12` (some centres undefined), the TGI in the assay with HOP-62 NSCLC, with UO-31 renal, in the assay with SK-MEL-28 melanoma, in the assay with T-47D breast, with NCI-H460 lung and with TK-10 renal was above 10 µM in each case. Moreover, the TGI in the assay on MCF7 breast, in the assay with CCRF-CEM leukemia, in the assay with UACC-62 melanoma, in the assay on MALME-3M melanoma, in the assay on HCC-2998 colon and with KM12 colon was above 10 µM throughout. In addition, the TGI with SK-MEL-5 melanoma, in the assay with HS 578T breast, in the assay with M14 melanoma and in the assay on UACC-257 melanoma was above 10 µM each time.

Regarding `CCOC(=O)CCC(NC(=O)c1ccc(Nc2nc3ccccc3nc2-c2cccs2)cc1)C(=O)OCC` (centres undefined), the TGI in the assay on HOP-62 NSCLC, with UO-31 renal, in the assay with SK-MEL-28 melanoma, in the assay on T-47D breast, in the assay on NCI-H460 lung and in the assay with TK-10 renal was above 100 µM in each case. The TGI in the assay on MCF7 breast, in the assay on CCRF-CEM leukemia, in the assay on UACC-62 melanoma, in the assay with MALME-3M melanoma, with HCC-2998 colon and with KM12 colon was above 100 µM throughout. Further, the TGI in the assay with SK-MEL-5 melanoma, in the assay on HS 578T breast, in the assay on M14 melanoma and with UACC-257 melanoma was above 100 µM throughout.

As to `CCOC(=O)c1c(-c2ccc(OC)cc2)c(C#N)c(=S)n(C2OC(CO)C(O)C(O)C2O)c1-c1ccccc1` (centres undefined), the TGI is 80.7 µM in the assay on HOP-62 NSCLC; above 100 µM with UO-31 renal; above 100 µM with SK-MEL-28 melanoma; above 100 µM in the assay with T-47D breast; above 100 µM in the assay on NCI-H460 lung; above 100 µM in the assay with TK-10 renal. Besides, the TGI in the assay with MCF7 breast, with CCRF-CEM leukemia, in the assay with UACC-62 melanoma, in the assay on MALME-3M melanoma, with HCC-2998 colon and in the assay on KM12 colon was above 100 µM in each case. Further, the TGI is 26.5 µM in the assay with SK-MEL-5 melanoma, 70 µM in the assay on HS 578T breast, above 100 µM with M14 melanoma and above 100 µM with UACC-257 melanoma.

For `CC(C)NC(=O)OCCN=C1c2ccccc2CCc2ccccc21`, the TGI with HOP-62 NSCLC amounted to 70.1 µM; with UO-31 renal it was 58.7 µM; with SK-MEL-28 melanoma, 40.3 µM; in the assay on T-47D breast, 66.1 µM; in the assay with NCI-H460 lung, 76.9 µM; in the assay with TK-10 renal, 92.7 µM. For the same compound, the TGI is 57.5 µM with MCF7 breast; 46.5 µM with CCRF-CEM leukemia; 40.8 µM in the assay on UACC-62 melanoma; 36.3 µM with MALME-3M melanoma; 39 µM in the assay on HCC-2998 colon; above 100 µM with KM12 colon. In addition, the TGI in the assay with SK-MEL-5 melanoma is 27.4 µM; in the assay with HS 578T breast, 78.3 µM; with M14 melanoma it was 39.7 µM; in the assay on UACC-257 melanoma, 46 µM.

As for `O=C(O)CC/C(=N\Nc1nsc2ccccc12)c1ccc(Cl)cc1`, the TGI in the assay with HOP-62 NSCLC is above 63.5 µM; in the assay with UO-31 renal, above 67.1 µM; in the assay on SK-MEL-28 melanoma it was 37.4 µM; in the assay on T-47D breast, above 100 µM; in the assay on NCI-H460 lung it was above 81.5 µM; in the assay with TK-10 renal, above 67.6 µM. Besides, the TGI with MCF7 breast is above 100 µM; in the assay on CCRF-CEM leukemia, above 54.6 µM; in the assay on UACC-62 melanoma, 50.6 µM; in the assay with MALME-3M melanoma, above 100 µM; in the assay on HCC-2998 colon, 36.8 µM; in the assay on KM12 colon, above 100 µM. Moreover, the TGI is above 31.6 µM with SK-MEL-5 melanoma, above 100 µM with HS 578T breast, above 65.8 µM in the assay with M14 melanoma and above 67.4 µM in the assay with UACC-257 melanoma.

With `CN(C)c1ccc(/C=C(\NC(=O)c2ccccc2)C(=O)NC(CCC(=O)O)C(=O)O)cc1` (centres undefined), the TGI in the assay with HOP-62 NSCLC, with UO-31 renal, with SK-MEL-28 melanoma, in the assay on T-47D breast, with NCI-H460 lung and in the assay on TK-10 renal was above 100 µM in each case. In addition, the TGI with MCF7 breast, with CCRF-CEM leukemia, in the assay with UACC-62 melanoma, in the assay with MALME-3M melanoma, in the assay with HCC-2998 colon and with KM12 colon was above 100 µM in each case. Further, the TGI in the assay on SK-MEL-5 melanoma, in the assay with HS 578T breast, in the assay on M14 melanoma and in the assay on UACC-257 melanoma was above 100 µM throughout.
